Reference: patent publication US11059795B2, “Androgen receptor modulators and methods for their use” (ESSA Pharma, Inc., priority 2018, dated 2021)

Legend:
androgen receptor (AR) = molecular target: T1, androgen receptor (AR) (Homo sapiens, UniProt P10275, T878A); assay: Androgen-induced PSA (6.1 kb)-luciferase reporter assay in LNCaP cells; assay type: cell-based; settings: LNCaP cells transfected with PSA (6.1 kb)-luciferase reporter, R1881 1 nM, 24 h; read-out: PSA-Luc IC50 Range
T1 construct: LNCaP cells were transiently transfected with the PSA (6.1 kb)-luciferase reporter for 24 h; endogenous in cells; host or cells: LNCaP
T1 sequence (P10275 1-920 T878A): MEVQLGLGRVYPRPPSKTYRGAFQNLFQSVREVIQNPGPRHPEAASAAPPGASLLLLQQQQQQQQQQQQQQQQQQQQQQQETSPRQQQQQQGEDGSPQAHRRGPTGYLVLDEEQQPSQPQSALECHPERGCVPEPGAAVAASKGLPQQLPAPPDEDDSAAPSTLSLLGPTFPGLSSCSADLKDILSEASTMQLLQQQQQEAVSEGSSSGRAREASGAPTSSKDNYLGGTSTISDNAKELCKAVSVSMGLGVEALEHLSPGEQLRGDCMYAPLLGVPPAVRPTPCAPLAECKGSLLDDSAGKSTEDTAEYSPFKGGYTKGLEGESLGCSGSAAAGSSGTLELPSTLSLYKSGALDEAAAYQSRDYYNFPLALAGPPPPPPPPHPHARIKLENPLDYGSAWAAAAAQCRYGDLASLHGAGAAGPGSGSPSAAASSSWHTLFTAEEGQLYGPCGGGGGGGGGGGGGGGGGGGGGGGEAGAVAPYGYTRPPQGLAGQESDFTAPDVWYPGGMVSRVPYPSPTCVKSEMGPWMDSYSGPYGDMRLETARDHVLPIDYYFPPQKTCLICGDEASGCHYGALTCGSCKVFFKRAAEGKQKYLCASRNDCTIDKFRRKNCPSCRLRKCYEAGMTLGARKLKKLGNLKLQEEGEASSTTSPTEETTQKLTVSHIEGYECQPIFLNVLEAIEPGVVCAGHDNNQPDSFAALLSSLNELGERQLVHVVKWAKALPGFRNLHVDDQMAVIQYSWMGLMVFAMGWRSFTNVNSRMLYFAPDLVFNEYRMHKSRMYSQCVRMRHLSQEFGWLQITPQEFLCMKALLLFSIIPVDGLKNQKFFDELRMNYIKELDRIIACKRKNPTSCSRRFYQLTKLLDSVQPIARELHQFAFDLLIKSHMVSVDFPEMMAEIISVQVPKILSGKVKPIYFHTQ
In short: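 LNCaP cells carrying a PSA (6.1 kb) promoter-luciferase reporter with AREs; androgen-induced firefly luciferase read from lysates for 10 s. RLU normalized to protein content; IC50 calculated from the normalized data.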

[1] = Microsomal stability assay, human liver microsomes; assay type: in vitro ADME; settings: pH 7.4, 1 μM compound, 0.5 mg/mL protein, 37° C., read-out: HLM +/− NADPH: Clint (μL/min/mg protein)
In short: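 Compound at 1 μM was incubated at 37° C with 0.5 mg/mL liver microsomes and 1 mM NADPH and/or 1 mM UDPGA (with alamethicin) in 100 mM potassium phosphate pH 7.4, 3 mM MgCl2. Samples were taken at 0, 15, 30 and 60 min and measured by LC/MS/MS. t½ came from compound loss relative to 0 min, and Clint was scaled with 45 mg microsomal protein/g liver.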

[2] = Hepatocyte stability assay, mouse hepatocytes; assay type: in vitro ADME; settings: mouse, cryopreserved hepatocytes, 1 μM compound, 0.5 million cells/mL, 37° C., read-out: MH +/− NADPH: Clint (μL/min/million cells)
Excerpt: The […] of in vitro intrinsic clearance (Clint) for drug candidates in the early discovery stage is common practice in the pharmaceutical industry. The Clint values of drug candidates can help to confirm whether metabolism is the main clearance pathway when it is compared with the total body clearance in vivo. Hepatocytes are among the routinely used in vitro systems for measuring clearance. Hepatocytes have been reported to retain most of the phase I and phase II metabolic activities, and therefore, it is a useful tool to estimate the intrinsic clearance for potential drug candidates.
Metabolic stability of testing compound were be evaluated using human and mouse hepatocytes and can also be use rat, mouse, or other animal hepatocytes to predict intrinsic clearance. Cryopreserved hepatocytes were removed from the liquid nitrogen tank and thawed in a 37° C. water bath. As soon as the cells pulled away from the vial wall, they were decanted into 48 ml of warm HT medium. Cells were centrifuged for four minutes at 420 rpm (50 g). After removing the supernatant, pellet was re-suspended in warm DMEM medium. Cell density was counted by a hemacytometer.
The assay was carried out in 96-well microtiter plates. Compounds were incubated for 0, 60, 120, and 180 minutes at 37° C. with hepatocytes. Reaction mixtures (50 μL) contained a final concentration of 1 μM test compound, 0.5 million cells/mL hepatocytes in the DMEM medium. At each of the time points (for example, 0, 1, 2, and 3 hours), 200 μL of quench solution (100% acetonitrile with 0.1% formic acid) with internal standard was transferred to each well. Midazolam was included as a positive control to verify assay performance. Plates were sealed and centrifuged at 4° C. for 15 minutes at 4000 rpm. The supernatant is transferred to fresh plates for LC/MS/MS analysis.
Summarized conditions (customizable): [Compound]=[…], Positive control: midazolam and/or naloxone, [Hepatocyte]=0.5 million cells/Ml, time=0, 60, 120, and 180 min, t=37° C.
(§1) All samples were analyzed on LC/MS/MS using an AB Sciex API 4000 instrument, coupled to a Shimadzu LC-20AD LC Pump system. Analytical samples were separated using a Waters Atlantis T3 dC18 reverse phase HPLC column (20 mm×2.1 mm) at a flow rate of 0.5 mL/min. The mobile phase consisted of 0.1% formic acid in water (solvent A) and 0.1% formic acid in 100% acetonitrile (solvent B).
The extent of metabolism was calculated as the disappearance of the test compound, compared to the 0-min control reaction incubations. Initial rates were calculated for the compound concentration and used to determine t½ values and subsequently, the intrinsic clearance, Clint. Clint=(0.693)(1/t½(min))(mL incubation/million cells)

[3] = Microsomal stability assay, mouse liver microsomes; assay type: in vitro ADME; settings: mouse, liver microsomes, pH 7.4, mouse liver microsomes, 1 μM compound, 0.5 mg/mL protein, 37° C.; read-out: MLM +30/− NADPH: Clint (μL/min/mg protein)
Protocol: Microsomal stability assay is a widely used in vitro model to characterize the metabolic conversion by phase I enzymes, such as cytochrome P450 (CYP) enzymes. Since metabolism is known to be highly variable in different species, microsomal stability assay is commonly run in multiple species. Metabolic stability of testing compound can be evaluated using human, rat, mouse, or other animal liver or intestine microsomes to predict intrinsic clearance.
The assay was carried out in 96-well microtiter plates at 37° C. Reaction mixtures (25 μL) contained a final concentration of 1 μM test compound, 0.5 mg/mL liver microsomes protein, and 1 mM NADPH and/or 1 mM UDPGA (with alamethicin) in 100 mM potassium phosphate, pH 7.4 buffer with 3 mM MgCl2. The incubation was done with N=1, but duplicate incubation at each time point can be prepared if necessary. At each of the time points (for example, 0, 15, 30, and 60 minutes), 150 μL of quench solution (100% acetonitrile with 0.1% formic acid) with internal standard was transferred to each well. Besides the zero minute controls, mixtures containing the same components except the NADPH can also be prepared as the negative control. Verapamil was included as a positive control to verify assay performance. Plates were sealed, vortexed, and centrifuged at 4° C. for 15 minutes at 4000 rpm. The supernatant is transferred to fresh plates for LC/MS/MS analysis.
Summarized conditions: [Compound]=[…], [LM]=0.5 mg/mL, [NADPH]=1 mM and/or [UDPGA]=1 mM, Buffer=100 mM Potassium Phosphate, pH 7.4 with 3 mM MgCl2, Time=0, 15, 30, and 60 min, and Temperature=37° C.
as §1
The extent of metabolism is calculated as the disappearance of the test compound, compared to the 0-min time incubation. Initial rates are calculated for the compound concentration and used to determine half-life (t½) values and subsequently, the intrinsic clearance (Clint). Clint=(0.693)(1/t½ (min))(g of liver/kg of body weight)(mL incubation/mg of microsomal protein)(45 mg of microsomal protein/g of liver weight)

Row | SMILES | IC50 (androgen receptor (AR)) | microsomal CLint at 1 μM [1] | hepatocyte CLint at 1 μM [2] | microsomal CLint at 1 μM [3]
1 | CC(C)(c1ccc(OCc2coc(S(N)(=O)=O)c2)cc1)c1cc(Cl)c(OCCCl)c(C#N)c1 [Compound A207] | < 500 nM | < 12 µL/min/mg | < 4 µL/min/1e6 cells | < 12 µL/min/mg
2 | CC(=O)Nc1nccc(C(C)Oc2ccc(C(C)(C)c3cc(Cl)c(OCCCl)c(C#N)c3)cc2)n1 (stereo not drawn) [Compound A145] | 500 to 2000 nM | ≥ 48 µL/min/mg | ≥ 18 µL/min/1e6 cells | ≥ 48 µL/min/mg
3 | CC(Oc1ccc(C(C)(C)c2cc(Cl)c(OCCCl)c(C#N)c2)cc1)c1ncoc1S(C)(=O)=O (stereo not drawn) [Compound A79] | < 500 nM | < 12 µL/min/mg | ≥ 18 µL/min/1e6 cells | ≥ 48 µL/min/mg
4 | CC(C)(c1ccc(OCc2nccc(NS(C)(=O)=O)n2)cc1)c1cc(Cl)c(OCCCl)c(C#N)c1 [Compound A184, N-(2-((4-(2-(3-chloro-4-(2-chloroethoxy)-5-cyanophenyl)propan-2-yl)phenoxy)methyl)pyrimidin-4-yl)methanesulfonamide] | > 2000 nM | < 12 µL/min/mg | < 4 µL/min/1e6 cells | < 12 µL/min/mg
5 | CC(C)S(=O)(=O)c1ncc(COc2ccc(C(C)(C)c3cc(Cl)c(OCCCl)c(C#N)c3)cc2)o1 [Compound A142] | < 500 nM | 12 to 48 µL/min/mg | ≥ 18 µL/min/1e6 cells | ≥ 48 µL/min/mg
6 | CC(=O)NN1C(=O)N(c2ccc(C(C)(C)c3cc(Cl)c(OCCCl)c(Cl)c3)cc2)C(=O)C1(C)C [Compound B5] | 500 to 2000 nM | < 12 µL/min/mg | 4 to 18 µL/min/1e6 cells | < 12 µL/min/mg
7 | [2H]c1c([2H])c(C(C)(C)c2cc(Cl)c(OCCCl)c(C#N)c2)c([2H])c([2H])c1OCc1ccnc(NS(C)(=O)=O)n1 [Compound A201] | 500 to 2000 nM | < 12 µL/min/mg | < 4 µL/min/1e6 cells | < 12 µL/min/mg
8 | CC(Oc1ccc(C(C)(C)c2cc(Cl)c(OCCCl)c(C#N)c2)cc1)c1ccnc(NS(C)(=O)=O)n1 (stereo not drawn) [Compound A98] | 500 to 2000 nM | < 12 µL/min/mg | < 4 µL/min/1e6 cells | < 12 µL/min/mg
9 | CC(C)(c1ccc(CCc2ccnc(N)n2)cc1)c1cc(Cl)c(OCCCl)c(C#N)c1 [Compound A121] | 500 to 2000 nM | 12 to 48 µL/min/mg | 4 to 18 µL/min/1e6 cells | 12 to 48 µL/min/mg
